One experiment concerns HEC-59. Put plainly: Cell viability assay (SRB or CTG) in HEC-59. It counts as cell-based. The settings on record: Homo sapiens, 7 days total, media renewed at day 4, SRB or CTG. As for the experimental part: (§1) Human breast carcinoma cell line, MDA-MB-231 and human endometrial cancer cell line, HEC-59 were purchased from ATCC (American Type Culture Collection; USA). MDA-MB-231 cells were cultured in Dulbecco's modified Eagle's medium (Lonza, NJ, USA), and HEC-59 were grown in Iscove's Modified Dulbecco's Medium (Lonza, NJ, USA), supplemented with 10% fetal bovine serum (FBS, Lonza), 1% non-essential amino acid (NEAA), 2 mM L-glutamine (Sigma Aldrich, MO, USA) and 50 U/ml penicillin/streptomycin (P/S). All cell lines were tested regularly using MycoAlert Mycoplasma Detection Kit (Lonza). The cumulative length of the cells between thawing and use in the experiments was less than 20 passages.
(§2) 4000 cells/well of MDA-MB-231 and HEC-59 cells were seeded in a 96 well plate in 80 μL media/well. Approximately 18 hours later, 3× drug solutions were prepared by serial dilution (100, 10, 5, 1, 0.5, 0.3, 0.1, 0.05, 0.01 μM), and the drug containing media was added to each well with a volume of 40 μL. For MDA-MB-231, 3 days after drug treatment, the SRB or CTG assay was performed. HEC59, the drug containing media was renewed at day 4. After 7 days total, the SRB or CTG assay was performed.

In a further experiment the test system is SKOV-3 xenograft. In words: SKOV-3 xenograft tumor growth. The format is in vivo, female athymic Balb/c nude mice. The settings on record: SKOV-3 xenograft, 20, 25 and 30 mpk BID. The method, then: (§3) Compound 80 was tested in other xenograft models using the following cell lines: triple negative breast cancer cell line, MDA-MB-231, ovarian cancer cell line, SKOV-3 and endometrium cell line, HEC-59. For the SKOV-3 xenograft, 1.5×10^7 SKOV-3 cells in 200 μl of 1:1 DMEM: Matrigel (Thermo Fisher, NJ, USA) and for the MDA-MB-231 xenograft, 1.5×10^7 MDA-MB-231 cells in 100 μl of 1:1 DMEM: Matrigel (Thermo Fisher, NJ, USA) for was injected in the right flank of six-to-eight-week-old female athymic Balb/c nude mice. When the tumor volume reached mean of ˜200 mm^3 mice for SKOV-3 xenografts and between 150-175 mm^3 for MDA-MB-231 xenografts, mice were randomized in a group of 8, and treatment was initiated vehicle, 20 mpk BID, 25 mpk BID and 30 mpk BID of Compound 80. For the HEC-59 xenografts, 1.×10^7 HEC-59 cells in 100 μl of DMEM (Lonza, NJ, USA) was injected in the right flank of six-to-eight-week-old female athymic Balb/c nude mice. When the tumor volume reached mean of ˜150 mm^3 mice were randomized in a group of 8 mice, and treatment was initiated vehicle, 20 mpk BID, 40 mpk QD and 30/40 mpk BID of Compound 80.

For another experiment, the system named is HEC-59 xenograft. Put plainly: HEC-59 xenograft tumor growth. It counts as in vivo, female athymic Balb/c nude mice. The settings on record: 20 mpk BID, 40 mpk QD and 30/40 mpk BID. As for the experimental part: as §3
The next experiment deals with MDA-MB-231. In words: Cell viability assay (SRB or CTG) in MDA-MB-231. The format is cell-based. Particulars: Homo sapiens, MDA-MB-231, 72 h, 3 days after drug treatment. The method, then:
as §1, §2

A further experiment relates to RKO xenograft. Put plainly: RKO colon cancer xenograft tumor growth. It counts as in vivo, female athymic Balb/c nude mice. The method, then: Six-to-eight-week-old female athymic Balb/c nude mice were housed with a temperature-controlled and 12-hour light/12-hour dark cycle environment. For in vivo colon cancer tumor growth, 5×10^6 RKO cells were prepared in 100 μl of DMEM and injected into right flank of female nude mice. Mouse weight and tumor volume were measured twice a week. Tumor volumes were calculated as length×width^2×0.5. Once the tumor volume had reached about 150-175 mm^3, xenografts were randomized into groups (8 mice per group). Animals were treated with vehicle, Compound 80 or oxaliplatin as mentioned in the table. The formulation for vehicle and Compound 80 was 50% PEG400 and 20% Cremophor RH40 final (50% of 40% Cremophor) in Acetate buffer, PH=4. Oxaliplatin was prepared in glucose solution. The mice were sacrificed after around 3 weeks or if the tumors reached a predefined tumor volume cut-off of 2500 mm^3.

A further experiment concerns MDA-MB-231 xenograft. Put plainly: MDA-MB-231 xenograft tumor growth. It counts as in vivo, female athymic Balb/c nude mice. Particulars: MDA-MB-231 xenograft, 20, 25 and 30 mpk BID. The method, then:
as §3

As a reminder, the IC50 is the concentration that gives 50% inhibition. Low values mean inhibition by little substance, high ones a need for much substance. What is called TGI is the reduction of tumour growth relative to the control group.

SMILES strings stand for the structures.

With `C[C@@H]1CN(c2ncc(F)c(Nc3cc(-c4ccc(OC(F)F)cc4)cnn3)n2)C[C@H](C)O1` [Compound 80, 5-(4-(difluoromethoxy)phenyl)-N-(2-((2R,6S)-2,6-dimethylmorpholino)-5-fluoropyrimidin-4-yl)pyridazin-3-amine], the concentration for half-maximal inhibition (IC50) with HEC-59 is 236 nM; in the experiment on MDA-MB-231 it was 398 nM. Besides, the “tumor growth inhibition or regression” value in the experiment on SKOV-3 xenograft, in the experiment on HEC-59 xenograft and in the experiment with MDA-MB-231 xenograft was “Statistically significant tumor growth inhibition or regression was observed” each time. The “tumor growth inhibition (in words)” value in the experiment on RKO xenograft (RKO xenograft, 20 and 30 mg/kg BID, 50 mg/kg QD PO) was “strong tumor growth inhibition in a dose-dependent manner”. The same compound displayed a TGI in the experiment on RKO xenograft (RKO xenograft, at the highest dose, PO, 20 days) of 85%. In the experiment on RKO xenograft (xenograft model, versus standard of care (oxaliplatin)), the “tumor growth inhibition compared to the standard of care (FIG. 1)” value is recorded as “superior tumor growth inhibition”.

(Values after patent US11986475B1, “Compositions and methods for treating cancer” (A2A Pharmaceuticals, Inc., priority 2022, dated 2024).)
